{"source": "patent US10427133B2", "about": "“Absorbent article comprising cyclodextrin complexes” (The Procter & Gamble Company, priority 2016, dated 2019)"}
{"experiment": "Fragrance (OCOC) release from cyclodextrin complexes on feminine hygiene pad, SPME-GC/MS headspace", "type": "physicochemical", "settings": "1.00 mL water, headspace at 5, 10, 30 min, FIG. 2", "from_the_text": "The results are shown in the graph of FIG. 2. After dosing with water the headspace was sampled using Solid Phase Micro-Extraction (a suitable fiber assembly is a 2 cm Stableflex 24 Ga, 50/30 μm DVB/CAR/PDMS available from Supelco, Pa. or equivalent) followed by gas chromatography/mass spectrometry (a suitable unit is the 5777A Mass Selective Detector (MSD) also available from Agilent, or equivalent) with a GERSTEL Multipurpose Sampler (Gerstel, Liticumo, Md. or equivalent) to quantify the OCOC release.\nThe model OCOC used is a neat mixture of benzaldehyde (1.6 g, 15.08 mmols), ligustral (1.6 g, 11.58 mmols), citral (1.6 g, 10.51 mmols), cinnamic aldehyde (1.6 g, 12.11 mmols), and florhydral (1.6 g, 8.41 mmols). All components are available from Sigma Aldrich, or equivalent. The mixture is homogenized before use.\nThe Standard Pad Substrates are prepared by cutting a 10 cm lateral strip across the whole product centered at the longitudinal center of an Always Ultra normal size pad.\nA mixture of the model OCOC for each β-cyclodextrin type was solubilized in water at a one-to-one molar ratio (β-cyclodextrin/OCOC). The amount of water used for the complexation was adjusted for each β-cyclodextrin type according to its individual water solubility to ensure complete dissolution of the β-cyclodextrin complex. Each mixture of β-cyclodextrin and OCOC in water was thoroughly homogenized. […]"}
{"molecule": "COC[C@H]1O[C@@H]2O[C@H]3[C@H](O)[C@@H](OC)[C@@H](O[C@H]4[C@H](O)[C@@H](OC)[C@@H](O[C@H]5[C@H](O)[C@@H](OC)[C@@H](O[C@H]6[C@H](O)[C@@H](OC)[C@@H](O[C@H]7[C@H](O)[C@@H](OC)[C@@H](O[C@H]8[C@H](O)[C@@H](OC)[C@@H](O[C@H]1[C@H](O)[C@H]2OC)O[C@@H]8COC)O[C@@H]7COC)O[C@@H]6COC)O[C@@H]5COC)O[C@@H]4COC)O[C@@H]3COC", "note": "[2,6-dimethyl-β-cyclodextrin, 2,6-Di-O-methyl-β-cyclodextrin]", "Percent release of fragrance versus conventional β-cyclodextrin complex": "much higher percent release of fragrance than does conventional β-cyclodextrin", "Release of fragrance versus 2,3,6-trimethyl-β-cyclodextrin complex": "much higher release of fragrance than does 2, 3, 6-trimethyl-β-cyclodextrin"}
{"experiment": "Thiol Vapor Pressure Suppression (TVPS) index measurement, zNose fast GC headspace", "settings": "5 μl compound, 100 μl 1% v/v butanethiol in ethanol, 37° C. for 4 hours", "from_the_text": "(§1) Thiol Vapor Pressure Suppression (TVPS) index is a measure of the reduction in butanethiol concentration in the headspace by a compound, as measured using a fast GC instrument, the zNose 7100 (Electronic Sensor Technologies, Newbury Park, Calif.).\nas §1, with “Calif.) based on an Surface Acoustic Wave (SAW) Quartz microbalance detector, or equivalent.” for “Calif.).”\nBefore any measurements the instrument is calibrated according to manufacturer's instructions under the same experimental settings. The instrument has a DB-5 column (also available from Electronic Sensor Technologies, Newbury Park, Calif.) 1 m in length, 0.25 μm phase thickness, and 0.25 mm in diameter.\nFor analysis, the zNose is programmed with the Sensor Temperature, Inlet Temperature, Valve Temperature, and Initial Column Temperature all set to 40° C. The oven is temperature gradient is programmed at a rate of 10° C./s from 40° C. to a final temperature of 200° C.\nTVPS of a compound is measured in the following way: 100 μl±1 μl of a 1% v/v butanethiol (99%, purity, available from Sigma-Aldrich, St. Louis, Mo.) solution in ethanol (200 proof) is added into a 1 ml vial (8×40 mm). These vials are borosilcate glass straight walled vial. In another 1 ml vial (8×40 mm), 5 μl±0.2 μl of the compound is added. Both open vials are then placed inside a 20 mL headspace vial (22×75 mm), and the vial is immediately sealed using a screw thread closure with PTFE/Silicone septa. The vial is heated to 37° C. for 4 hours. After 4 hours, the vial is removed from the oven and let to equilibrate at 25° C.±2° C. for 15 minutes. The headspace inside the vial is sampled using the zNose is sampled for 10 s and analyzed following the experimental protocol outlined above. Samples with butanethiol alone, and the volatile active alone, are run using the same protocol to identify the peaks for both materials. An acceptable retention index for butanethiol is 720±30. If the peaks butanethiol peak and the volatile material peak co-elute, one skilled in the art can modify the protocol settings to separate those peaks to achieve a minimum resolution of 1.5. For example one can change the column temperature ramp rate. In between samples, the instrument needs to be cleaned to remove any trace materials. To clean the instrument, the instrument is run without samples as needed until no peaks greater than 100 counts are observed.\nThe amount of butanethiol in the headspace is measured from the area of the peak on the chromatograph for butanethiol (ABtSH,Rx). To calculate the percentage of butanethiol reduction in the headspace, a control with the butanethiol solution without the volatile material is run in the same manner and the area is measured as well (ABtSH,C). TVPS is then measured as the percentage reduction in butanethiol area calculated using the following formula: […]"}
{"molecule": "CC1=CC(C)C(C=O)CC1", "note": "(centres unmarked) [ligustral]", "TVPS (percentage reduction in butanethiol headspace peak area)": 42.5}
{"molecule": "Cc1ccc(C=O)s1", "note": "[5-methyl-2-thiophene-carboxaldehyde]", "TVPS (percentage reduction in butanethiol headspace peak area)": 67.4}
{"molecule": "CC(C)=CCCC(C)C=O", "note": "(centres unmarked) [melonal]", "TVPS (percentage reduction in butanethiol headspace peak area)": 20.4}
{"molecule": "CC(C)c1cccc(C(C)CC=O)c1", "note": "(centres unmarked) [Florhydral]", "TVPS (percentage reduction in butanethiol headspace peak area)": 53.3}
{"molecule": "CCC/C=C/C=O", "note": "[trans-2-hexenal]", "TVPS (percentage reduction in butanethiol headspace peak area)": 27.1}
{"molecule": "CC(C)=CCCC(C)CCCC(C)C=O", "note": "(centres unmarked) [adoxal]", "TVPS (percentage reduction in butanethiol headspace peak area)": 24.4}
{"molecule": "CCCCCCC(C=O)=Cc1ccccc1", "note": "[Hexylcinnamic aldehyde]", "TVPS (percentage reduction in butanethiol headspace peak area)": 8.0}
{"molecule": "C=CC(C)CCC=C(C)CCC=O", "note": "(centres unmarked) [Floral Super]", "TVPS (percentage reduction in butanethiol headspace peak area)": 52.4}
{"molecule": "CC(C)=CCC/C(C)=C\\C=O", "note": "[neral]", "TVPS (percentage reduction in butanethiol headspace peak area)": 17.1}
